From patent US11718604B2, “4-amino-6-(1,3-benzodioxole)picolinates and their use as herbicides” (Dow AgroSciences LLC, priority 2018, dated 2023)

What was measured:
Type in all cases: in vivo
[1] = test system: CIRAR: Canada thistle (Cirsium arvense); assay: Post-emergent herbicidal test, Canada thistle; conditions: post-emergence, 336 h, 14 days after application, read-out: Visual Growth Reduction (%) 14 Days After Application CIRAR
Procedure, shortened: (§1)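 Scores reflect visual injury (0–100%) at 14 d post-spray on young plants treated at the 1st/2nd true leaf stage. Greenhouse held at about 23-29° C day and 22-28° C night; spray volume 187 L/ha, with solvent-blank controls.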

[2] = test system: SETFA: giant foxtail (Setaria faberi); assay: Post-emergent herbicidal test, giant foxtail; conditions: post-emergence, 336 h, 14 days after application, read-out: Visual Growth Reduction (%) 14 Days After Application SETFA
Procedure, shortened: as §1

[3] = test system: VIOTR: wild violet (Viola tricolor); assay: Post-emergent herbicidal test, wild violet; conditions: post-emergence, 336 h, 14 days after application, read-out: Visual Growth Reduction (%) 14 Days After Application VIOTR
Procedure, shortened: as §1

[4] = test system: DIGSA: large crabgrass (Digitaria sanguinalis); assay: Post-emergent herbicidal test, large crabgrass; conditions: post-emergence, 336 h, 14 days after application, read-out: Visual Growth Reduction (%) 14 Days After Application DIGSA
Procedure, shortened: as §1

[5] = test system: BRSNN: oilseed rape, canola (Brassica napus); assay: Post-emergent herbicidal test, oilseed rape; conditions: post-emergence, 336 h, 14 days after application, read-out: Visual Growth Reduction (%) 14 Days After Application BRSNN
Procedure, shortened: as §1

[6] = test system: EPHHL: wild poinsettia (Euphorbia heterophylla); assay: Post-emergent herbicidal test, wild poinsettia; conditions: post-emergence, 336 h, 14 days after application, read-out: Visual Growth Reduction (%) 14 Days After Application EPHHL
Procedure, shortened: as §1

[7] = test system: CYPES: yellow nutsedge (Cyperus esculentus); assay: Post-emergent herbicidal test, yellow nutsedge; conditions: post-emergence, 336 h, 14 days after application, read-out: Visual Growth Reduction (%) 14 Days After Application CYPES
Procedure, shortened: as §1

[8] = test system: ABUTH: velvetleaf (Abutilon theophrasti); assay: Post-emergent herbicidal test, velvetleaf; conditions: post-emergence, 336 h, 14 days after application, read-out: Visual Growth Reduction (%) 14 Days After Application ABUTH
Procedure, shortened: as §1

[9] = test system: ECHCG: barnyardgrass (Echinochloa crus-galli); assay: Post-emergent herbicidal test, barnyardgrass; conditions: post-emergence, 336 h, 14 days after application, read-out: Visual Growth Reduction (%) 14 Days After Application ECHCG
Procedure, shortened: as §1

[10] = test system: IPOHE: ivyleaf morningglory (Ipomoea hederacea); assay: Post-emergent herbicidal test, ivyleaf morningglory; conditions: post-emergence, 336 h, 14 days after application, read-out: Visual Growth Reduction (%) 14 Days After Application IPOHE
Procedure, shortened: as §1

[11] = test system: SORVU: shattercane (Sorghum bicolor); assay: Post-emergent herbicidal test, shattercane; conditions: post-emergence, 336 h, 14 days after application, read-out: Visual Growth Reduction (%) 14 Days After Application SORVU
Procedure, shortened: as §1

COC(=O)c1nc(-c2ccc(Cl)c3c2OCO3)c(F)c(N)c1Cl [Compound 1A, methyl 4-amino-3-chloro-6-(7-chlorobenzo[d][1,3]dioxol-4-yl)-5-fluoropicolinate]
pest or weed control at 17.5 g/ha ([1]; 17.5 g ai/ha): 83% | pest or weed control at 35 g/ha ([1]; 35 g ai/ha): 83% | pest or weed control at 70 g/ha ([1]; 70 g ai/ha): 88% | pest or weed control at 140 g/ha ([1]; 140 g ai/ha): 93% | pest or weed control at 17.5 g/ha ([2]; 17.5 g ai/ha): 15% | pest or weed control at 35 g/ha ([2]; 35 g ai/ha): 15% | pest or weed control at 70 g/ha ([2]; 70 g ai/ha): 25% | pest or weed control at 140 g/ha ([2]; 140 g ai/ha): 30% | pest or weed control at 17.5 g/ha ([3]; 17.5 g ai/ha): 53% | pest or weed control at 35 g/ha ([3]; 35 g ai/ha): 95% | pest or weed control at 70 g/ha ([3]; 70 g ai/ha): 75% | pest or weed control at 140 g/ha ([3]; 140 g ai/ha): 90% | pest or weed control at 17.5 g/ha ([4]; 17.5 g ai/ha): 5% | pest or weed control at 35 g/ha ([4]; 35 g ai/ha): 20% | pest or weed control at 70 g/ha ([4]; 70 g ai/ha): 50% | pest or weed control at 140 g/ha ([4]; 140 g ai/ha): 28% | pest or weed control at 17.5 g/ha ([5]; 17.5 g ai/ha): 78% | pest or weed control at 35 g/ha ([5]; 35 g ai/ha): 88% | pest or weed control at 70 g/ha ([5]; 70 g ai/ha): 95% | pest or weed control at 140 g/ha ([5]; 140 g ai/ha): 98% | pest or weed control at 17.5 g/ha ([6]; 17.5 g ai/ha): 3% | pest or weed control at 35 g/ha ([6]; 35 g ai/ha): 10% | pest or weed control at 70 g/ha ([6]; 70 g ai/ha): 13% | pest or weed control at 140 g/ha ([6]; 140 g ai/ha): 18% | pest or weed control at 17.5 g/ha ([7]; 17.5 g ai/ha): 78% | pest or weed control at 35 g/ha ([7]; 35 g ai/ha): 83% | pest or weed control at 70 g/ha ([7]; 70 g ai/ha): 83% | pest or weed control at 140 g/ha ([7]; 140 g ai/ha): 80% | pest or weed control at 17.5 g/ha ([8]; 17.5 g ai/ha): 85% | pest or weed control at 35 g/ha ([8]; 35 g ai/ha): 90% | pest or weed control at 70 g/ha ([8]; 70 g ai/ha): 93% | pest or weed control at 140 g/ha ([8]; 140 g ai/ha): 95% | pest or weed control at 17.5 g/ha ([9]; 17.5 g ai/ha): 8% | pest or weed control at 35 g/ha ([9]; 35 g ai/ha): 18% | pest or weed control at 70 g/ha ([9]; 70 g ai/ha): 28% | pest or weed control at 140 g/ha ([9]; 140 g ai/ha): 30% | pest or weed control at 17.5 g/ha ([10]; 17.5 g ai/ha): 0% | pest or weed control at 35 g/ha ([10]; 35 g ai/ha): 0% | pest or weed control at 70 g/ha ([10]; 70 g ai/ha): 0% | pest or weed control at 140 g/ha ([10]; 140 g ai/ha): 0% | pest or weed control at 17.5 g/ha ([11]; 17.5 g ai/ha): 25% | pest or weed control at 35 g/ha ([11]; 35 g ai/ha): 43% | pest or weed control at 70 g/ha ([11]; 70 g ai/ha): 55% | pest or weed control at 140 g/ha ([11]; 140 g ai/ha): 65%
